≈ marks a conversion by molar mass, not a printed value.
Tested on: Candida albicans ATCC MYA-2876
Assay: Minimal inhibitory concentration (MIC) test on fungal growth (CLSI M27, yeasts)
Type: cell-based
Conditions: Candida albicans, 24 h, read-out: MIC Candida albicans ATCC MYA-2876
Protocol: • RPMI1640 medium: Brand: Gibco, article number: 31800-014 • Sabouraud dextrose agar (SDA): Brand: Hope Bio, article number: HB0253-81 • Voriconazole: Brand: Adamas, article number: 22105A • Amphotericin B: Brand: AbCam, article number: ab141199
MIC test was conducted in accordance with the guidelines and requirements of CLSI M27 (for yeasts) and M38 (for Aspergillus).
Strain preparation: The strains were inoculated 1 day in advance by streaking on SDA plates with glycerol strains stored at −80° C. The strains were cultured at 35° C. and 40 to 60% humidity for 18 to 24 hours. Streak inoculation of Aspergillus fumigatus and Cryptococcus neoformans was required to be done 3 days and 2 days in advance, respectively.
Preparation of culture medium and compounds: The liquid culture medium RPMI was prepared with pure water, and 0.165 mol/L MOPS was added to adjust the pH to 7.0. The mixture was filtered with a 0.22 μm-membrane filter, sterilized, and stored at 4° C. (no more than 3 months). 0.85% physiological saline was sterilized at 121° C. for 30 min and then stored at room temperature (no more than 1 week). The compounds were dissolved in DMSO to 12.8 mg/mL and stored at −20° C.
For yeast, 3 to 5 colonies were selected from the SDA plate on the day of testing and fully suspended in 5 mL of sterilized 0.85% physiological saline. The turbidity of the bacterial suspension was measured with a turbidimeter, and the turbidity was adjusted to approximately 0.2. The bacterial suspension was 50-fold and 20-fold (1000-fold in total) diluted in RPMI1640 medium, respectively, to serve as the inoculum. The final inoculum concentration was 500 to 2500 CFU/mL.
The compound was diluted to the highest 800 μg/mL (or 400 μg/mL) with DMSO, and a 10-step 2-fold gradient dilution was performed, resulting in 11 concentrations. 2 μL of the gradient-diluted compound was transferred to the corresponding wells of a 96-well plate, and then 198 μL of the inoculum was transferred to the test plate. The plate was incubated at 35° C. for 24 hours (Aspergillus fumigatus and Cryptococcus neoformans were incubated for 48 and 72 hours, respectively).
After the incubation, the growth of the fungi was visually observed. The lowest concentration of the compound that inhibited the growth of yeast by 50% (inhibited Aspergillus by 100%) was defined as the minimum inhibitory concentration (MIC, μg/mL). A magnifying glass or reading at OD530 nm could be used to assist in determining the MIC. Photos were taken of the test plates for record keeping.

SMILES	MIC [µg/mL]
NC[C@H](O)COc1ccc(C23CC(C(F)(F)C(O)(Cn4cnnn4)c4ccc(F)cc4F)(C2)C3)cc1 (stereo partly shown) [Compound 52]	1 (≈ 1.97 µM)
OC(Cn1cnnn1)(c1ccc(F)cc1F)C(F)(F)C12CC(c3ccc(OCC(F)(F)F)nn3)(C1)C2 (stereo not shown) [Compound 114]	0.06 (≈ 0.116 µM)
CC(C)NC[C@@H](O)COc1ccc(C23CC(C(F)(F)C(O)(Cn4cnnn4)c4ccc(F)cc4F)(C2)C3)cc1 (stereo partly shown) [Compound 54]	0.5 (≈ 0.91 µM)
CN(C)CCOc1ccc(C23CC(C(F)(F)C(O)(Cn4cnnn4)c4ccc(F)cc4F)(C2)C3)cc1 (stereo not shown) [Compound 64]	0.06 (≈ 0.119 µM)
OCC(F)(F)CNc1ccc(C23CC(C(F)(F)C(O)(Cn4cnnn4)c4ccc(F)cc4F)(C2)C3)cn1 (stereo not shown) [Compound 104]	0.03 (≈ 0.0568 µM)

Same assay, conditions: Candida albicans; lowest concentration inhibiting growth of yeast by 50%; 35° C., 24 hours; RPMI1640; read-out: MIC Candida albicans ATCC MYA-2876

SMILES	MIC [µg/mL]
CN1CCC(O)(COc2ccc(C34CC(C(F)(F)C(O)(Cn5cnnn5)c5ccc(F)cc5F)(C3)C4)cc2)CC1 (stereo not shown) [Compound 38]	0.5 (≈ 0.89 µM)
C[C@](F)(C12CC(c3ccc(OCC(F)(F)F)cc3)(C1)C2)[C@@](O)(Cn1cnnn1)c1ccc(F)cc1F [Compound 18B]	2 (≈ 3.9 µM)
OC1(COc2ccc(C34CC(C(F)(F)C(O)(Cn5cnnn5)c5ccc(F)cc5F)(C3)C4)cc2)COC1 (stereo not shown) [Compound 150]	0.03 (≈ 0.0576 µM)
OC(Cn1cnnn1)(c1ccc(F)cc1F)C(F)(F)C12CC(c3ccc(OCC(F)(F)F)nc3)(C1)C2 (stereo not shown) [Compound 46]	0.03 (≈ 0.058 µM)
OC(Cn1cnnn1)(c1ccc(F)cc1F)C(F)(F)C12CC(c3cnc(OCC(F)(F)F)nc3)(C1)C2 (stereo not shown) [Compound 110]	0.06 (≈ 0.116 µM)
OC(Cn1cnnn1)(c1ccc(F)cc1F)C(F)(F)C12CC(c3ccc(OC(F)(F)F)cc3)(C1)C2 (stereo not shown) [Compound 24]	0.03 (≈ 0.0597 µM)
O[C@@](Cn1cnnn1)(c1ccc(F)cc1F)C(F)(F)C12CC(c3cnc(OCC(F)(F)F)cn3)(C1)C2 (stereo in doubt) [Compound 107A]	0.016 (≈ 0.0309 µM)
N#Cc1ccc(C23CC(C[C@](O)(Cn4cncn4)c4ccc(F)cc4F)(C2)C3)cc1 (stereo in doubt) [Compound 91A]	≤ 0.0039
CN1CCN(c2ccc(C34CC(C(F)(F)C(O)(Cn5cnnn5)c5ccc(F)cc5F)(C3)C4)cc2)CC1 (stereo not shown) [Compound 162]	0.03 (≈ 0.0581 µM)
CN1CC[C@@H](Oc2ccc(C34CC(C(F)(F)C(O)(Cn5cnnn5)c5ccc(F)cc5F)(C3)C4)cc2)C1 (stereo partly shown) [Compound 42]	0.06 (≈ 0.116 µM)
CC12CC(C(F)(F)C(O)(Cn3cnnn3)c3ccc(F)cc3F)(C1)C2 (stereo not shown) [Compound 14]	0.03 (≈ 0.0842 µM)
O=C1NC[C@H](COc2ccc(C34CC(C(F)(F)C(O)(Cn5cnnn5)c5ccc(F)cc5F)(C3)C4)cc2)O1 (stereo partly shown) [Compound 59]	0.13 (≈ 0.244 µM)
OC(Cn1cncn1)(c1ccc(Cl)cc1F)C(F)(F)C12CC(c3ccc(OCC(F)(F)F)cc3)(C1)C2 (stereo not shown) [Compound 5]	0.016 (≈ 0.0301 µM)
COc1ccc(C23CC(C(C)(F)C(O)(Cn4cnnn4)c4ccc(F)cc4F)(C2)C3)cc1 (stereo not shown) [Compound 17]	0.125 (≈ 0.281 µM)
O[C@](Cn1cnnn1)(c1ccc(F)cc1F)C(F)(F)C12CC(C1)C2 [Compound 6B]	2 (≈ 5.84 µM)
OC(Cn1cnnn1)(c1ccc(F)cc1F)C(F)(F)C12CC(c3ccc(OC4CNC4)cc3)(C1)C2 (stereo not shown) [Compound 44]	0.06 (≈ 0.123 µM)
COC(=O)c1ccc(C23CC(C(F)(F)C(O)(Cn4cnnn4)c4ccc(F)cc4F)(C2)C3)cc1 (stereo not shown) [Compound 77]	0.016 (≈ 0.0336 µM)
OC(Cn1cnnn1)(c1ccc(F)cc1F)C(F)(F)C12CC(c3ccc(COC(F)F)cc3)(C1)C2 (stereo not shown) [Compound 159]	0.0078 (≈ 0.0156 µM)
OC(Cn1cnnn1)(c1cc(F)ccc1F)C(F)(F)C12CC(c3ccc(OCC(F)(F)F)cc3)(C1)C2 (stereo not shown) [Compound 9]	0.03 (≈ 0.0581 µM)
CS(=O)(=O)c1ccc(C23CC(C(F)(F)C(O)(Cn4cnnn4)c4ccc(F)cc4F)(C2)C3)cc1 (stereo not shown) [Compound 88]	0.25 (≈ 0.504 µM)
OC(Cn1cnnn1)(c1ccc(F)cc1F)C(F)(F)C12CC(c3ccc4c(c3)OCO4)(C1)C2 (stereo not shown) [Compound 33]	0.06 (≈ 0.13 µM)

SMILES	MIC [µg/mL]
CN(C)C[C@@H](O)COc1ccc(C23CC(C(F)(F)C(O)(Cn4cnnn4)c4ccc(F)cc4F)(C2)C3)cc1 (stereo partly shown) [Compound 55]	0.25 (≈ 0.467 µM)
CN1CCC(COc2ccc(C34CC(C(F)(F)C(O)(Cn5cnnn5)c5ccc(F)cc5F)(C3)C4)cc2)CC1 (stereo not shown) [Compound 74]	0.13 (≈ 0.238 µM)
OC(Cn1cnnn1)(c1ccc(Cl)cc1F)C(F)(F)C12CC(c3ccc(OCC(F)(F)F)cc3)(C1)C2 (stereo not shown) [Compound 7]	0.016 (≈ 0.03 µM)
OC(Cn1cnnn1)(c1ccc(F)cc1F)C(F)(F)C12CC(c3ccc(Cl)cc3)(C1)C2 (stereo not shown) [Compound 32]	0.016 (≈ 0.0353 µM)
OC(Cn1cncn1)(c1ccc(F)cc1F)C(F)(F)C12CC(c3ccc(-n4cncn4)nc3)(C1)C2 (stereo not shown) [Compound 95]	≤ 0.0039
COCCOc1ccc(C23CC(C(F)(F)C(O)(Cn4cnnn4)c4ccc(F)cc4F)(C2)C3)cc1 (stereo not shown) [Compound 62]	0.016 (≈ 0.0325 µM)
N#Cc1ccc(C23CC(C(F)(F)[C@@](Cn4cncn4)(OCOP(=O)(O)O)c4ccc(F)cc4F)(C2)C3)cc1 [Compound 27A-P2]	0.5 (≈ 0.905 µM)
OC(Cn1cnnn1)(c1ccc(F)cc1F)C(F)(F)C12CC(c3cccc(OCC(F)(F)F)c3)(C1)C2 (stereo not shown) [Compound 31]	0.125 (≈ 0.242 µM)
CC(C12CC(c3ccc(C#N)cc3)(C1)C2)C(O)(Cn1cncn1)c1ccc(F)cc1F (stereo not shown) [Compound 126]	0.016 (≈ 0.0381 µM)
O[C@](Cn1cnnn1)(c1ccc(F)cc1F)C(F)(F)C12CC(c3ccc(OCC(F)(F)F)cc3)(C1)C2 [Compound 3B]	1 (≈ 1.94 µM)
N#Cc1cccc(C23CC(C(F)(F)C(O)(Cn4cnnn4)c4ccc(F)cc4F)(C2)C3)c1 (stereo not shown) [Compound 30]	0.06 (≈ 0.135 µM)
OC(Cn1cnnn1)(c1ccc(F)cc1F)C(F)(F)C12CC(c3ccc(C(F)(F)F)nc3)(C1)C2 (stereo not shown) [Compound 115]	0.125 (≈ 0.256 µM)
C[C@@](F)(C12CC(c3ccc(OCC(F)(F)F)cc3)(C1)C2)[C@](O)(Cn1cnnn1)c1ccc(F)cc1F (single isomer, unassigned) [Compound 18A]	0.0078 (≈ 0.0152 µM)
OC(Cn1cncn1)(c1ccc(F)cc1F)C(F)(F)C12CC(C1)C2 (stereo not shown) [Compound 10]	≤ 0.0039
CS(=O)(=O)CC(O)COc1ccc(C23CC(C(F)(F)C(O)(Cn4cnnn4)c4ccc(F)cc4F)(C2)C3)cc1 (stereo not shown) [Compound 141]	0.06 (≈ 0.105 µM)
CN1CCOC(COc2ccc(C34CC(C(F)(F)C(O)(Cn5cnnn5)c5ccc(F)cc5F)(C3)C4)cc2)C1 (stereo not shown) [Compound 85]	0.03 (≈ 0.0548 µM)
OC(Cn1cnnn1)(c1ccc(F)cc1F)C(F)(F)C12CC(c3ccc(OCC4(F)COC4)nc3)(C1)C2 (stereo not shown) [Compound 122]	0.016 (≈ 0.0306 µM)
OC(Cn1cnnn1)(c1ccc(F)cc1F)C(F)(F)C12CC(c3ccc(OC(F)F)cc3)(C1)C2 (stereo not shown) [Compound 26]	0.016 (≈ 0.033 µM)
OC(COc1ccc(C23CC(C(F)(F)C(O)(Cn4cnnn4)c4ccc(F)cc4F)(C2)C3)cc1)C1COC1 (stereo not shown) [Compound 152]	0.0078 (≈ 0.0146 µM)
N#Cc1ccc(COc2ccc(C#CC34CC(C(F)(F)C(O)(Cn5cnnn5)c5ccc(F)cc5F)(C3)C4)cc2)cc1 (stereo not shown) [Compound 19]	0.016 (≈ 0.0279 µM)
OC(Cn1cnnn1)(c1ccc(F)cc1F)C(F)(F)C12CC(I)(C1)C2 (stereo not shown) [Compound 11]	0.03 (≈ 0.0641 µM)

Same assay, conditions: lowest concentration inhibiting growth of yeast by 50%; 35° C., 24 hours; RPMI1640

SMILES	MIC Candida albicans ATCC MYA-2876 [µg/mL]
CC12CC(C(F)(F)[C@](O)(Cn3cnnn3)c3ccc(F)cc3F)(C1)C2 [Compound 14A]	0.016 (≈ 0.0449 µM)
O[C@@](Cn1cnnn1)(c1ccc(F)cc1F)C(F)(F)C12CC(c3ccc(Cl)cc3)(C1)C2 [Compound 32A]	≤0.0039
O[C@](Cn1cnnn1)(CC12CC(c3ccc(OCC(F)(F)F)cc3)(C1)C2)c1ccc(F)cc1F [Compound 48A]	0.016 (≈ 0.0333 µM)
N#Cc1ccc(C23CC(C(F)(F)[C@@](O)(Cn4cnnn4)c4ccc(F)cc4F)(C2)C3)cc1 [Compound 8A]	0.0078 (≈ 0.0176 µM)
OC(Cn1cnnn1)(c1ccc(F)cc1F)C(F)(F)C12CC(c3cnn(CC(F)(F)F)c3)(C1)C2 (stereo not shown) [Compound 120]	0.125 (≈ 0.255 µM)

Source: patent US20240228446A1, “PREPARATION METHOD FOR BICYCLIC COMPOUND AND APPLICATION AS ANTIFUNGAL AGENT” (priority 2021, published 2024)
